# Columns and labels:
# Estrogen ERβ = target: T1, Estrogen ERβ (Homo sapiens, UniProt Q92731); test: Receptor binding 226050
# T1 construct: Eurofins (contract assay) 226050
# Method: (§1) Radioligand binding to a panel of receptors was carried out by Eurofins on crude membrane preparations according to published procedures and by using appropriate reference standard (Eurofins, CVie 101 compound code PT #1207859, study #AB76416, quote #68407-1, for Cvie Therapeutics Limited, Taiwan (R.OC.) on Mar. 5, 2017). CVie 101 was tested at the concentration of 10 μM. No significant interaction was documented, except for Sodium Channel, site 2 from rat (cat #279510), where a significant response (≥50%) was noted (Table 7).
# STZ diabetic rats = test: Haemodynamics in streptozotocin diabetic rats (echocardiography); type: in vivo, rat; conditions: 20 mg/kg os, after treatment, mean ± SD, n = 12
# Method: Sprague Dawley male rats (150-175 g) were made diabetic by a single injection into the tail vein of a solution of streptozotocin (STZ, 50 mg/kg, Sigma-Aldrich), freshly prepared in 0.1 M sodium citrate buffer, pH 4.5. Control rats received citrate buffer. Fasting glycaemia was measured after 1 week and rats with values >400 mg/dl were considered diabetic.
# Eight-nine weeks after STZ injection, rats were submitted to transthoracic echocardiographic and Doppler evaluation performed under pentobarbital anesthesia. Two-dimensionally guided M-mode recordings were used to obtain short-axis measurements of left ventricular end-diastolic diameter (LVEDD), left ventricular end-systolic diameter (LVESD), posterior (PW) and septal (SW) diastolic wall thickness according to the American Society of Echocardiography guidelines (Lang R M et al. Eur J Echocardiography 2006; 7:79-108). Fractional shortening was calculated as FS=(LVEDD-LVESD)/LVEDD. Relative wall thickness was calculated as PWTd+IVSTd/LVEDD.
# Mitral inflow was measured by pulsed Doppler at the tips of mitral leaflets from an apical 4-chamber view to obtain early and late filling velocities (E, A) and deceleration time of early filling velocity (DT). The deceleration slope was calculated as E/DT ratio. The mitral deceleration index was calculated as DT/E ratio.
# Tissue Doppler Imaging (TDI) was evaluated from the apical 4-chamber view to record septal mitral annular movements, i.e., peak myocardial systolic (s′) and early and late diastolic velocity (e′ and a′).
# Compound CVie 101 was orally administered to STZ injected rats at the dose of 20 mg/kg and echocardiographic parameters were measured after 1 h.
# [1] = system: Glutamate, NMDA, Phencyclidine; test: Receptor binding 233000; design: species or system rat; conditions: 10 μM
# Method: as §1
# Muscarinic M3 = target: T2, Muscarinic M3 (Homo sapiens, UniProt P20309); test: Receptor binding 252810
# T2 construct: Eurofins (contract assay) 252810
# T2 sequence (P20309 whole entry): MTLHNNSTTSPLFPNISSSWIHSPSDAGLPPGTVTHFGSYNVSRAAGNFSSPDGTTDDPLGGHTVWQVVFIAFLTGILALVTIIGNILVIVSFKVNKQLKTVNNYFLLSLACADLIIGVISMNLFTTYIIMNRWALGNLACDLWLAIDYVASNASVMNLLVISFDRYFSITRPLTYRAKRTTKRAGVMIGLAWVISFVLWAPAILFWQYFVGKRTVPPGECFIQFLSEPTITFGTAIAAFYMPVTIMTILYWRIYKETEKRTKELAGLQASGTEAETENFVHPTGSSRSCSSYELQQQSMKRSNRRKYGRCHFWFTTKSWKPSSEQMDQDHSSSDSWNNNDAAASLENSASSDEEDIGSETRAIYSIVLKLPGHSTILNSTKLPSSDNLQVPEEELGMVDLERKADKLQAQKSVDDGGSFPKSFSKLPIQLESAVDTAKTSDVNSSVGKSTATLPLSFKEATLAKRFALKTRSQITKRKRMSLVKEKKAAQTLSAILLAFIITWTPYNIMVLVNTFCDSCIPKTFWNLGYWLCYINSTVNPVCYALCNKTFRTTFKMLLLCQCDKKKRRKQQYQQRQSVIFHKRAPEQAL
# Method: as §1
# Opiate μ(OP3, MOP) = target: T3, Opiate μ(OP3, MOP) (Homo sapiens, UniProt P35372); test: Receptor binding 260410
# T3 construct: Eurofins (contract assay) 260410
# T3 sequence (P35372 whole entry): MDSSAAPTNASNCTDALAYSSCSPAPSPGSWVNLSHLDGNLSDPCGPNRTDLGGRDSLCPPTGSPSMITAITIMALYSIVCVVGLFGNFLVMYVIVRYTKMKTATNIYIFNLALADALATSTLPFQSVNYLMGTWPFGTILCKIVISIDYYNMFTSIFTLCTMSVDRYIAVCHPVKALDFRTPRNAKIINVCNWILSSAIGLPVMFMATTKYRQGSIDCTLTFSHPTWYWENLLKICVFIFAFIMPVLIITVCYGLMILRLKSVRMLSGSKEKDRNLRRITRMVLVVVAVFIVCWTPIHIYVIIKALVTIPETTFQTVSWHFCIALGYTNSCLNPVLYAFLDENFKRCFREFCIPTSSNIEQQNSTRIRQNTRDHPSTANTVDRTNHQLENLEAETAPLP
# Method: as §1
# Monoamine Oxidase MAO-B = target: T4, Monoamine Oxidase MAO-B (Homo sapiens, UniProt P27338); test: Eurofins panel 140120; type: biochemical
# T4 construct: Eurofins 140120
# T4 sequence (P27338 whole entry): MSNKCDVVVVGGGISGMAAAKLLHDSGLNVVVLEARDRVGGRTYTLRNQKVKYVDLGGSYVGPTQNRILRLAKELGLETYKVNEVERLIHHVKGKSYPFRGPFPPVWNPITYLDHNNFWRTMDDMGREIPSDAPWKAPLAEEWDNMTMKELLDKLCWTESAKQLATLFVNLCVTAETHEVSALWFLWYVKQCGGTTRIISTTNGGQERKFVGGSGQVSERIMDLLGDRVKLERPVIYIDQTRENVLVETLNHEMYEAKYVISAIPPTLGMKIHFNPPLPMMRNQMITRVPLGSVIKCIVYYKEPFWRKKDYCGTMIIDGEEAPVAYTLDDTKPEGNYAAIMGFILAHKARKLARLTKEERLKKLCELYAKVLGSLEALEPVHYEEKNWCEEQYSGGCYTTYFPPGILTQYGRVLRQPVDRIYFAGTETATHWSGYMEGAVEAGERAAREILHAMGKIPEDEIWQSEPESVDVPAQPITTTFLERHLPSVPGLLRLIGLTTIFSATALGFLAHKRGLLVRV
# Method: as §1
# [2] = system: guinea pig isolated cardiomyocytes; test: Action potential measurements in isolated ventricular cardiomyocytes; type: cell-based; conditions: 100 nM
# Description: The compounds were characterized for their effect on (i) SR Ca^2+ uptake function, (ii) action potential (AP) in myocytes freshly dissociated from guinea-pig ventricles by retrograde coronary perfusion with enzymatic solution (Rocchetti M et al. J Pharmacol Exper Therap 2005; 313(1):207-215).
# The action potential (AP) contour provides a first-line estimate of the integrated function of membrane ion channels and its changes may disclose ancillary actions, potentially resulting in untoward effects of the compound. To increase sensitivity of the AP contour as a reporter, effects on the rate-dependency of AP parameters were also tested, thus providing a multiparametric (more stringent) approach.
# APs were recorded in normal Tyrode's solution at 36.5° C. The following parameters were measured at 4 stimulation rates (0.5-1-2-4 Hz): diastolic membrane potential (Edlast), maximum depolarization velocity (dV/dtmax), action potential duration (APD at 90%, 50% and 20% of repolarization), time constant (τ) of APD adaptation after a step change in stimulation rate. Short term APD variability (STV) during steady-state pacing, an index of repolarization stability, was measured as the sum of absolute ortogonal deviations from the identity line in the APDnfAPDn+1 plot (Poincare plot) (Altomare C et al, Circulation A&E 2015; 8:1265-1275).
# Potassium Channel (KATP) = target: T5, Potassium Channel (KATP) (Cricetus cricetus, UniProt Q09427); test: Receptor binding 265600; design: species or system hamster
# T5 construct: Eurofins (contract assay) 265600
# T5 sequence (Q09427 whole entry): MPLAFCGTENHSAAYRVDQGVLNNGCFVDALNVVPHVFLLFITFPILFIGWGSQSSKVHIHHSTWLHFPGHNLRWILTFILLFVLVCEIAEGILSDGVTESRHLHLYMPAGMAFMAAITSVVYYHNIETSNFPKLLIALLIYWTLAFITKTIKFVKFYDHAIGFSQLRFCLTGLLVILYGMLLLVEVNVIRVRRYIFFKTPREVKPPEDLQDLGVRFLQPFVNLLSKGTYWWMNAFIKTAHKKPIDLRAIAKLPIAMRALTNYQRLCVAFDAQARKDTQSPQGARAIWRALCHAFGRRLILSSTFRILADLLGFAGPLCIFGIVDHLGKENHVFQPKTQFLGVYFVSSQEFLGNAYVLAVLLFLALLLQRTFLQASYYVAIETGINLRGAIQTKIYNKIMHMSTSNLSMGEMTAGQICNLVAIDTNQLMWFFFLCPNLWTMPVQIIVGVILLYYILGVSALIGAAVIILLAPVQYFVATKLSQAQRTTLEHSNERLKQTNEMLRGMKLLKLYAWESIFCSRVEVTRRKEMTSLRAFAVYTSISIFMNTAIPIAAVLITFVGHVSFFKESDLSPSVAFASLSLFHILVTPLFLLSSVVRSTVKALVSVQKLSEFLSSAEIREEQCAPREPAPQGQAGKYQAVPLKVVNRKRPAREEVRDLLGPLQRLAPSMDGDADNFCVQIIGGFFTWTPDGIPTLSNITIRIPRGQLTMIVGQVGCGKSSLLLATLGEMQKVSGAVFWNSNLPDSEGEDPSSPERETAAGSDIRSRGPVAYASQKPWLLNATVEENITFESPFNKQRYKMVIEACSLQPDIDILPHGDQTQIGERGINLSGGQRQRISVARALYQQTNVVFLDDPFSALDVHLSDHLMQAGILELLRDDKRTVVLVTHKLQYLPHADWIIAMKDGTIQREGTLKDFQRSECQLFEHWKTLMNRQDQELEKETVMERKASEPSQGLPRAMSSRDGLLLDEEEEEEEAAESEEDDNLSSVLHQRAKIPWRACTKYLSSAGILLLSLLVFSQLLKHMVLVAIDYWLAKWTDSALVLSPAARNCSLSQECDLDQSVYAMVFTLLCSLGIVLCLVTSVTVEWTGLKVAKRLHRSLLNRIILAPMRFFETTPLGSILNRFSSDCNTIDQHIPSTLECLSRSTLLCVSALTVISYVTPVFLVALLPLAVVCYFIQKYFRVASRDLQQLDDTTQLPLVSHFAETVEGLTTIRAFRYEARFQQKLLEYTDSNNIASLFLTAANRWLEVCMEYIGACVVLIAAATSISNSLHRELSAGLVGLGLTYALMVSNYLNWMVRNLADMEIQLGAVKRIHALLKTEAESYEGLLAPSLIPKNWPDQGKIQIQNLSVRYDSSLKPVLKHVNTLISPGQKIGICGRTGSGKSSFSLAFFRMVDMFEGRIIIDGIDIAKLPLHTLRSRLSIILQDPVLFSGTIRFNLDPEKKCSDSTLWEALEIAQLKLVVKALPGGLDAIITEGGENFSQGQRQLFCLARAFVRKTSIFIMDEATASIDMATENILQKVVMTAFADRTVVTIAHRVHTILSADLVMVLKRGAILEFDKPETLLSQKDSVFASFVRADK
# Method: as §1
# Adenosine A2A = target: T6, Adenosine A2A (Homo sapiens, UniProt P29274); test: Receptor binding 200610
# T6 construct: Eurofins 200610; host or cells: crude membrane preparation
# T6 sequence (P29274 whole entry): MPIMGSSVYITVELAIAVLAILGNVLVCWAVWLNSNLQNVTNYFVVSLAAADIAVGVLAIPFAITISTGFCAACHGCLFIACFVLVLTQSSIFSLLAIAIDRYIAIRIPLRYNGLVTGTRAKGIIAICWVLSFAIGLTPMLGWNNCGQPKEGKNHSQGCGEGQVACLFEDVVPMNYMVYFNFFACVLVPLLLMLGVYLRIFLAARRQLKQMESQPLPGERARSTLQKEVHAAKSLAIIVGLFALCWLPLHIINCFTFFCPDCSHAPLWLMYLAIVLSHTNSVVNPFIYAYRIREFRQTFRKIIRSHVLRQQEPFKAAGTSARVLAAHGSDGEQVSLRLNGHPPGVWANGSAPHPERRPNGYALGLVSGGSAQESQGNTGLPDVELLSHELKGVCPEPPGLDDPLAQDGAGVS
# Method: as §1
# Adrenergic β2 = target: T7, Adrenergic β2 (Homo sapiens, UniProt P07550); test: Receptor binding 204110
# T7 construct: Eurofins 204110; host or cells: crude membrane preparation
# T7 sequence (P07550 whole entry): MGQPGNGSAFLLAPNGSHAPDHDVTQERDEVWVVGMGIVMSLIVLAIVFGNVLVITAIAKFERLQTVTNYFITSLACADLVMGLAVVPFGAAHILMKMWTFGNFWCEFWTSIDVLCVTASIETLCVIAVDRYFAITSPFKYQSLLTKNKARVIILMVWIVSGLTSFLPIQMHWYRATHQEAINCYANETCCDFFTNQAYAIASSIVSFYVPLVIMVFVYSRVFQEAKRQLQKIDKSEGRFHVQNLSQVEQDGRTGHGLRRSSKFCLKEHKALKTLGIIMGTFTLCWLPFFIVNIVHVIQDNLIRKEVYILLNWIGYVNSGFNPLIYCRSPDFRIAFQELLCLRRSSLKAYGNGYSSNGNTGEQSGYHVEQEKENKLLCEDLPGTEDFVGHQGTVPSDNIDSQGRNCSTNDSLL
# Method: as §1
# T1 sequence (Q92731 whole entry): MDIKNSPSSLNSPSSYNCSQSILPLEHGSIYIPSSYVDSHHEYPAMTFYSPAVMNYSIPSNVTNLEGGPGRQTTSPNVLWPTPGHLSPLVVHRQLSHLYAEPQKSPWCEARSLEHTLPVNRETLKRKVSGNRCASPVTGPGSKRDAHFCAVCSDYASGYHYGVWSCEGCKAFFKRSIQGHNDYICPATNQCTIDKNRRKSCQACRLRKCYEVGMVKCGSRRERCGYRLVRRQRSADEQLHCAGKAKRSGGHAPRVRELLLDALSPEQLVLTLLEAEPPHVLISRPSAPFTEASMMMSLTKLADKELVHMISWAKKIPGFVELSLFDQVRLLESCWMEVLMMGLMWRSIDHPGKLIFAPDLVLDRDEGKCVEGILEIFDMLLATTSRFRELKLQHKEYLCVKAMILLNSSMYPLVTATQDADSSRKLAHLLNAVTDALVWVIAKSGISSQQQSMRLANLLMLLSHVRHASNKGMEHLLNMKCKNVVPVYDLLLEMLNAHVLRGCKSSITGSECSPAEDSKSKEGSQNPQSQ
smiles,measurement,setting,value
"C[C@]12CC[C@H](O)C[C@H]1CCC1C2CC[C@]2(C)[C@@H](c3c[nH]cn3)CC[C@]12O (stereo partly drawn) [CVie 101, 3β-hydroxy-5β-10β-methyl-13β-methyl-14β-hydroxy-17β-(imidazol-4-yl)androstane]",inhibition at 10 µM,Estrogen ERβ,17%
same,A (late filling velocity of mitral inflow),STZ diabetic rats,0.76 ± 0.17 m/s
same,A′ (TDI late relaxation velocity),STZ diabetic rats,28.7 ± 6.6 cm/s
same,CO (cardiac output),STZ diabetic rats,219.0 ± 76.7 mL/min
same,DT (deceleration time of E wave),STZ diabetic rats,47.7 ± 4.8 ms
same,DT/E (mitral deceleration index),STZ diabetic rats,51.0 ± 10.2 ms·s/m
same,E (early filling velocity of mitral inflow),STZ diabetic rats,0.96 ± 0.14 m/s
same,E/A (index of LV function),STZ diabetic rats,1.29 ± 0.22
same,E/DT (deceleration slope),STZ diabetic rats,20.3 ± 4.1 m/s2
same,E/e′ (index of LV filling pressure),STZ diabetic rats,38.0 ± 4.9
same,E′ (TDI early relaxation velocity),STZ diabetic rats,25.2 ± 1.9 cm/s
same,FS (fractional shortening),STZ diabetic rats,45.1 ± 3.4 %
same,HR (heart rate),STZ diabetic rats,262 ± 48.1 beat/min
same,SV (stroke volume),STZ diabetic rats,0.82 ± 0.21 ml/beat
same,S′ (TDI contraction velocity),STZ diabetic rats,23.8 ± 3.6 cm/s
same,% inhib,[1],7%
same,inhibition at 10 µM,Muscarinic M3,15%
same,inhibition at 10 µM,"Opiate μ(OP3, MOP)",19%
same,inhibition at 10 µM,Monoamine Oxidase MAO-B,4%
same,short term APD variability (STV),"[2]; 0.5-1-2-4 Hz separately or pooled, FIG. 3",unaffected
same,diastolic membrane potential (Ediast),"[2]; 0.5-1-2-4 Hz, FIG. 2A",did not affect
same,maximum depolarization velocity (dV/dtmax),[2]; FIG. 2B,did not affect
same,"action potential duration (APD at 90%, 50% and 20% of repolarization) and its cycle-length dependency",[2]; FIG. 2C,did not affect
same,time constant of APD adaptation after a step change in cycle length,[2]; FIG. 2D,not shortened
same,inhibition at 10 µM,Potassium Channel (KATP),-6%
same,inhibition at 10 µM,Adenosine A2A,0%
same,inhibition at 10 µM,Adrenergic β2,1%
